Active and inactive are the calls of the source. The rule behind the calls is not given here.

For experiment [1], the system named is Nucleic Acid. Kind of experiment: Displacement of distamycin-A from d(TGGGGT) quadruplex DNA at compound/DNA ratio 4:1 by isothermal titration calorimetry analysis. The class given is nucleic-acid assay. (In ITC the heat of successive injections is recorded.)
Experiment [2] deals with Nucleic Acid. Kind of experiment: Binding affinity to d(TGGGGT) quadruplex DNA at compound/DNA ratio 4:1 by isothermal titration calorimetry analysis. The experiment is classed as nucleic-acid assay.
Experiment [3] concerns Nucleic Acid. Kind of experiment: Binding affinity to d(TGGGGT) quadruplex DNA by NMR analysis. The class given is nucleic-acid assay.
Experiment [4] concerns BJ. Kind of experiment: Induction of DNA damage in human BJ cells expressing hTERT and SV40 early region assessed as damaged foci colocalized with TRF1 at 0.1 to 0.5 uM after 24 hrs by deconvolution microscopy analysis. The experiment is classed as functional, cell-based.
Experiment [5] deals with BJ. Kind of experiment: Induction of DNA damage in human BJ cells expressing hTERT and SV40 early region at 0.5 uM after 24 hrs by immunofluorescence analysis. The experiment is classed as functional, cell-based.
The test system of experiment [6] is BJ. Briefly: Induction of telomere damage in human BJ cells expressing hTERT and SV40 early region assessed as gammaH2AX/TRF1 colocalizations at 0.1 to 0.5 uM after 24 hrs by immunofluorescence analysis. The experiment is classed as functional.
Experiment [7] has as its system Nucleic Acid. Briefly: Binding affinity to d(TGGGGT) quadruplex DNA by chemical shift perturbation method. The experiment is classed as nucleic-acid assay.
The test system of experiment [8] is HeLa. Briefly: Cell cycle arrest in human HeLa cells assessed as accumulation at sub-G1 phase at 3.5 uM after 96 hrs by flow cytometry (reference value: 6%). The experiment is classed as functional. For orientation: Flow cytometry measures light scatter and fluorescence of single cells or particles in a stream.
Experiment [9] deals with HeLa. Briefly: Cell cycle arrest in human HeLa cells assessed as accumulation at sub-G1 phase at 3.5 uM after 24 hrs by flow cytometry (reference value: 3%). The class given is functional.
The subject of experiment [10] is HeLa. Kind of experiment: Induction of apoptosis in human HeLa cells at 3.5 uM after 24 hrs using Annexin V-FITC vs PI staining by flow cytometry (reference value: 3.8%). The class given is functional.
In experiment [11] the test system is HeLa. Briefly: Cell cycle arrest in human HeLa cells assessed as accumulation at G2/M phase at 3.5 uM after 96 hrs by flow cytometry (reference value: 11%). The experiment is classed as functional.
Experiment [12] relates to HeLa. Briefly: Cell cycle arrest in human HeLa cells assessed as accumulation at G0-G1 phase at 3.5 uM after 72 hrs by flow cytometry (reference value: 64%). The experiment is classed as functional.
In experiment [13] the test system is HeLa. Kind of experiment: Cell cycle arrest in human HeLa cells assessed as accumulation at G2/M phase at 3.5 uM after 72 hrs by flow cytometry (reference value: 14%). The class given is functional.
Experiment [14] has as its system HeLa. Briefly: Cytotoxicity against human HeLa cells assessed as decrease in cell survival. The class given is functional, cell-based.
Experiment [15] deals with HeLa. Kind of experiment: Cell cycle arrest in human HeLa cells assessed as accumulation at sub-G1 phase at 3.5 uM after 72 hrs by flow cytometry (reference value: 5%). The experiment is classed as functional.
Experiment [16] relates to HeLa. Kind of experiment: Cell cycle arrest in human HeLa cells assessed as accumulation at S phase at 3.5 uM after 72 hrs by flow cytometry (reference value: 22%). The experiment is classed as functional.
The subject of experiment [17] is HeLa. Kind of experiment: Cell cycle arrest in human HeLa cells assessed as accumulation at S phase at 3.5 uM after 24 hrs by flow cytometry (reference value: 27%). The class given is functional.
Experiment [18] deals with HeLa. Briefly: Cell cycle arrest in human HeLa cells assessed as accumulation at G0-G1 phase at 3.5 uM after 24 hrs by flow cytometry (reference value: 57%). The class given is functional.
Experiment [19] deals with HeLa. Kind of experiment: Cell cycle arrest in human HeLa cells assessed as accumulation at sub-G1 phase at 3.5 uM after 120 hrs by flow cytometry (reference value: 14%). The class given is functional.
Experiment [20] concerns HeLa. Kind of experiment: Induction of apoptosis in human HeLa cells at 3.5 uM after 72 hrs using Annexin V-FITC vs PI staining by flow cytometry (reference value: 3.9%). The class given is functional.
The test system of experiment [21] is HeLa. Kind of experiment: Cell cycle arrest in human HeLa cells assessed as accumulation at S phase at 3.5 uM after 96 hrs by flow cytometry (reference value: 22%). The class given is functional.
The subject of experiment [22] is HeLa. Briefly: Cell cycle arrest in human HeLa cells assessed as accumulation at G0-G1 phase at 3.5 uM after 96 hrs by flow cytometry (reference value: 67%). The experiment is classed as functional.
Experiment [23] concerns HeLa. Kind of experiment: Cell cycle arrest in human HeLa cells assessed as accumulation at G2/M phase at 3.5 uM after 120 hrs by flow cytometry (reference value: 18%). The experiment is classed as functional.
The test system of experiment [24] is HeLa. Kind of experiment: Cell cycle arrest in human HeLa cells assessed as accumulation at G0-G1 phase at 3.5 uM after 120 hrs by flow cytometry (reference value: 51%). The experiment is classed as functional.
Experiment [25] relates to HeLa. Kind of experiment: Cell cycle arrest in human HeLa cells assessed as accumulation at S phase at 3.5 uM after 120 hrs by flow cytometry (reference value: 31%). The experiment is classed as functional.
For experiment [26], the system named is HeLa. Kind of experiment: Induction of apoptosis in human HeLa cells at 3.5 uM after 120 hrs using Annexin V-FITC vs PI staining by flow cytometry (reference value: 8.3%). The experiment is classed as functional.
Experiment [27] relates to HeLa. Kind of experiment: Cell cycle arrest in human HeLa cells assessed as accumulation at G2/M phase at 3.5 uM after 24 hrs by flow cytometry (reference value: 16%). The experiment is classed as functional.
The test system of experiment [28] is HeLa. Briefly: Induction of apoptosis in human HeLa cells at 3.5 uM after 96 hrs using Annexin V-FITC vs PI staining by flow cytometry (reference value: 5.3%). The experiment is classed as functional.

On to `O=c1oc2c(CN3CCN(CCO)CC3)c(O)ccc2cc1-c1nc2ccccc2s1`, for which the outcome in [1] and in [2] was Active.
For the molecule `CC1CCCN(Cc2c(O)ccc3c(=O)c(-c4nc5ccccc5s4)coc23)C1` (stereo unspecified), in experiment [3], the outcome was Active.
As for `Cn1cc(NC(=O)c2cc(NC(=O)c3cc(NC=O)cn3C)cn2C)cc1C(=O)NCCC(=N)N`, the result in [4] and in experiment [5] was Active.
As to `CCc1cc2c(=O)c(-c3nc4ccccc4s3)coc2c(CN2CCCC2)c1O`, in experiment [3], the outcome was inactive.
For `O=c1c(-c2nc3ccccc3s2)coc2c(CN3CCOCC3)c(O)ccc12`, in [3], the outcome was Active.
In the case of `Nc1oc2c(CN3CCCCCC3)c(O)ccc2c(=O)c1-c1nc2ccccc2s1`, the outcome in experiment [2], in [4], in [5] and in experiment [3] was Active. Further, the Activity in experiment [6] was 50%.
Regarding `CN(C)Cc1c(O)ccc2c(=O)c(-c3nc4ccccc4s3)coc12`, in experiment [3], the outcome was Active.
With `Cc1oc2c(CN(C)C)c(O)ccc2c(=O)c1-c1nc2ccccc2s1`, in experiment [3], the result was inactive.
Still for that read-out and setting: the value for `CC1CCCCN1Cc1c(O)ccc2c(=O)c(-c3nc4ccccc4s3)coc12` (stereo unspecified) was “Active”; that for `O=c1c(-c2nc3ccccc3s2)coc2cc(O)ccc12` was “inactive”.
For `CCN1CCN(Cc2c(O)ccc3cc(-c4nc5ccccc5s4)c(=O)oc23)CC1`, the result in experiment [7] was Active.
`CCC1CCCCN1Cc1c(O)ccc2c(=O)c(-c3nc4ccccc4s3)coc12` (stereo unspecified): in experiment [3], the result was Active.
As to `CC1CCCC(C)N1Cc1c(O)ccc2c(=O)c(-c3nc4ccccc4s3)c(N)oc12` (stereo unspecified), the Activity in experiment [8] amounted to 19%; in experiment [9], 5%; in experiment [10], 4.6%; in experiment [11], 32%; in [6] it was 50%; in experiment [12], 40%. For the same molecule, the Activity in experiment [13] was 37%; in experiment [15], 12%; in experiment [16], 23%; in experiment [17], 28%; in experiment [18] it was 52%; in [19] it was 38%. Besides, the Activity in experiment [20] came out at 7.1%; in experiment [21], 28%; in [22] it was 40%; in [23], 31%; in experiment [24], 43%; in [25], 26%. The Activity in experiment [26] is 30.6%; in [27] it was 20%; in experiment [28], 13.9%. For the same molecule, the result in experiment [2], in experiment [4], in experiment [5] and in experiment [3] was Active. In addition, the inhibition result in [14] was “Dose-dependent effect”.
As for `CC1CCN(Cc2c(O)ccc3c(O)c(-c4nc5ccccc5s4)c(=N)oc23)CC1`, the outcome in experiment [3] was Active.
As to `CCOC(=O)N1CCN(Cc2c(O)ccc3cc(-c4nc5ccccc5s4)c(=O)oc23)CC1`, the result in [7] was inactive.
On to `O=c1oc2c(CN(CCO)CCO)c(O)ccc2cc1-c1nc2ccccc2s1`, for which the result in [7] was Active.
On to `CCN(CC)Cc1c(O)ccc2c(=O)c(-c3nc4ccccc4s3)coc12`, for which the outcome in experiment [2], in experiment [4], in experiment [5] and in experiment [3] was Active. The Activity in [6] stood at 50%.
Turning to `CCc1cc2c(=O)c(-c3nc4ccccc4s3)coc2c(CN(CC)CC)c1O`, the outcome in experiment [3] was inactive.
With `CC1CCN(Cc2c(O)ccc3c(=O)c(-c4nc5ccccc5s4)coc23)CC1`, the result in experiment [3] was Active.
`O=c1c(-c2nc3ccccc3s2)coc2c(CN3CCCCC3)c(O)ccc12`: the result in experiment [3] was Active.
As for `O=c1oc2c(CN3CCN(c4ccccc4)CC3)c(O)ccc2cc1-c1nc2ccccc2s1`, in experiment [7], the result was inactive.
Regarding `Cc1oc2c(CN3CCCC3)c(O)ccc2c(=O)c1-c1nc2ccccc2s1`, in experiment [3], the result was inactive.
In the case of `O=c1c(-c2nc3ccccc3s2)coc2c(CN3CCCC3)c(O)ccc12`, the outcome in experiment [3] was Active.
As for `CC1CCCN(Cc2c(O)ccc3c(O)c(-c4nc5ccccc5s4)c(=N)oc23)C1` (stereo unspecified), the outcome in experiment [3] was Active.
Consider `CC1(C)C[C@H]2CN(Cc3c(O)ccc4c(=O)c(-c5nc6ccccc6s5)c(N)oc34)[C@](C)(C2)C1`, for which, in [3], the outcome was inactive.
Take `CN1CCN(Cc2c(O)ccc3cc(-c4nc5ccccc5s4)c(=O)oc23)CC1`: the outcome in [7] was Active.
